{"source": "paper PMC3563422", "about": "(Bioorganic & medicinal chemistry, 2012)", "type_in_all_cases": "biochemical", "key": {"DENV2 NS2B/NS3pro": {"molecular_target": "DENV2 NS2B/NS3pro (Dengue virus type 2, UniProt P14340)", "sequence (P14340 1476-1653)": "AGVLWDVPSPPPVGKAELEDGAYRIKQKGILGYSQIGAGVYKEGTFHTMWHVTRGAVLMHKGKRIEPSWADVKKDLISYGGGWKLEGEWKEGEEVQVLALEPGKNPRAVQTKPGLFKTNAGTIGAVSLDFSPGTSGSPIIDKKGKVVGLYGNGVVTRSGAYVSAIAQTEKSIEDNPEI", "assay": "In vitro DENV2 NS2B/NS3pro protease inhibition assay", "conditions": "screened at 25 μM"}, "WNV NS2B/NS3pro [1]": {"molecular_target": "T1, WNV NS2B/NS3pro (West Nile virus, UniProt Q9Q6P4)", "T1 sequence (Q9Q6P4 1506-1683)": "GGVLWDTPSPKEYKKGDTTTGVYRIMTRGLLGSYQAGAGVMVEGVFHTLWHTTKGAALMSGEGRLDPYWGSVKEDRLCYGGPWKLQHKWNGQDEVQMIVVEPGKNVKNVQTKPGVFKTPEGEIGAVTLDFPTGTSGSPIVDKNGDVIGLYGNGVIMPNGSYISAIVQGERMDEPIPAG", "assay": "In vitro WNV NS2B/NS3pro protease inhibition assay", "conditions": "screened at 25 μM"}, "Dengue virus protease": {"molecular_target": "Dengue virus protease (Dengue virus type 2, UniProt P14340)", "sequence (P14340 1476-1653)": "as the sequence (P14340 1476-1653) above", "assay": "Kinetics analysis of DENV NS2B/NS3pro inhibition"}, "WNV NS2B/NS3pro [2]": {"molecular_target": "T1, WNV NS2B/NS3pro", "assay": "Kinetics analysis of WNV NS2B/NS3pro inhibition", "conditions": "for kcat of tetra-peptide substrate: 37 °C, WNV NS2B/NS3pro 28 nM"}}, "data": [{"smiles": "O=C(NCc1cn(CSc2ccccc2)nn1)Nc1ccc(C(=O)Nc2ccc(Oc3ccccc3)cc2)cc1", "note": "[Compound 7a]", "values": [{"measurement": "activity against DENV NS2B/NS3pro (screen)", "setting": "DENV2 NS2B/NS3pro", "result": "inactive"}, {"measurement": "activity against WNV NS2B/NS3pro (screen)", "setting": "WNV NS2B/NS3pro [1]", "result": "inactive"}]}, {"smiles": "O=C(NCc1cn(Cc2ccc(F)cc2)nn1)Nc1ccc(C(=O)Nc2ccc(Oc3ccccc3)cc2)cc1", "note": "[Compound 7n]", "values": [{"measurement": "Ki", "setting": "Dengue virus protease", "result": 8.77, "unit": "µM"}, {"measurement": "mode of inhibition of Dengue virus protease", "setting": "Dengue virus protease; from kinetics data", "result": "competitive"}, {"measurement": "Ki", "setting": "WNV NS2B/NS3pro [2]", "result": 5.55, "unit": "µM"}, {"measurement": "kcat of tetra-peptide substrate", "setting": "WNV NS2B/NS3pro [2]; [7n] = 1 μM", "result": "0.059 ± 0.0014", "unit": "s⁻¹"}, {"measurement": "kcat of tetra-peptide substrate", "setting": "WNV NS2B/NS3pro [2]; [7n] = 3 μM", "result": "0.062 ± 0.0018", "unit": "s⁻¹"}, {"measurement": "kcat of tetra-peptide substrate", "setting": "WNV NS2B/NS3pro [2]; [7n] = 5 μM", "result": "0.055 ± 0.0020", "unit": "s⁻¹"}, {"measurement": "mode of inhibition of West Nile virus protease", "setting": "WNV NS2B/NS3pro [2]; from kinetics data", "result": "competitive"}]}, {"smiles": "O=C(NCc1cn(Cc2ccccc2)nn1)Nc1cccc(C(=O)Nc2cccc(Oc3ccccc3)c2)c1", "note": "[Compound 8f]", "values": [{"measurement": "activity against DENV NS2B/NS3pro (screen)", "setting": "DENV2 NS2B/NS3pro", "result": "inactive"}, {"measurement": "activity against WNV NS2B/NS3pro (screen)", "setting": "WNV NS2B/NS3pro [1]", "result": "inactive"}]}]}
